# Assay results from US5288851A, “Renin inhibitors, processes for preparing them, methods for using them, and compositions containing them” (Warner-Lambert Company, priority 1992, dated 1994).
# Target: T1, renin (Homo sapiens, UniProt P00797)
# T1 sequence (P00797 67-406): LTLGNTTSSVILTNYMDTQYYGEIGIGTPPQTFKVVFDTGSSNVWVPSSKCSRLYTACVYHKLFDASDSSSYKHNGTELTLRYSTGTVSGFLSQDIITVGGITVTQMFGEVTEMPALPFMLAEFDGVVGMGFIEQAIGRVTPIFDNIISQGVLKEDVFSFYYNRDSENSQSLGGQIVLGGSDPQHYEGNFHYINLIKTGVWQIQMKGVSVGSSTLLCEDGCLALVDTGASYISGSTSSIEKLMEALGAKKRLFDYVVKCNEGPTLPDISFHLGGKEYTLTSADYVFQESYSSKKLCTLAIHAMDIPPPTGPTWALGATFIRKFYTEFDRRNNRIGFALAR
# Assay: in vitro renin inhibitory activity, radioimmunoassay for angiotensin I
# Format: biochemical
# Conditions: renin incubated two hours at 37° with substrate angiotensinogen; angiotensin I by radioimmunoassay; molar concentration causing 50% inhibition
# Procedure: The effectiveness of the aforementioned compounds is determined by a test for in vitro renin inhibitory activity. This activity is determined by a standard radioimmunoassay for angiotensin I. In this assay the enzyme, renin, incubated for two hours at 37° in the presence of a substrate, angiotensinogen, generates the product, angiotensin I. Test compounds are added to the incubation mixture. Relative activity is reported as the IC50, which is the molar concentration of test compound causing a 50% inhibition of the renin activity.
row,IC50 [nM],Compound
1,41,"CCC(C)CNC(=O)CC(O)C(CC(C)C)NC(=O)C(Cc1cnc[nH]1)NC(=O)C(Cc1ccccc1)NS(=O)(=O)N(C)C (stereo not drawn) [Me2 NSO2 PHEHISSTANHCH2 CH(CH3)CH2 CH3, Me2 NSO2 --PHE--HIS--STA--NHCH2 CH(CH3)CH2 CH3]"
2,~3000,CCC(C)CNC(=O)CC(O)C(CC(C)C)NC(=O)C(Cc1cnc[nH]1)NC(=O)C(Cc1ccc(OC)cc1)NS(=O)(=O)N(C)C (stereo not drawn) [Me2 NSO2 TYR(OMe)HISSTANHCH2 CH(CH3)CH2 CH3]
3,7,"C=CC[C@H](NC(=O)[C@H](Cc1ccccc1)NS(=O)(=O)N(C)C)C(=O)N[C@@H](CC(C)C)[C@@H](O)CC(=O)NCC(C)CC (stereo partly drawn) [MeNSO2 PHEALGSTANHCH2 CH(CH3)CH2 CH3, Me2 NSO2 --PHE--ALG--STA--NHCH2 CH(CH3)CH2 CH3]"
4,34,Me2 NSO2 --PHE--PGY--STA--NHCH2 CH(CH3)CH2 CH3 [Me2 NSO2 PHEPGYSTANHCH2 CH(CH3)CH2 CH3]
5,1.5,MeNSO2 PHEALGCYSTANHCH2 CH(CH3)CH2 CH3
6,1.1,MeNSO2 PHEPGYCYSTANHCH2 CH(CH3)CH2 CH3
